Measurements from PubChem BioAssay (NCI).
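Growth conditions: 96-well plates. Treatment: test compound, 48 hours, 5 concentrations. Analysis: linear interpolation between bracketing concentrations; unreached endpoints set to highest concentration. The concentration for 50% growth inhibition is given as GI50. The concentration for full growth arrest is given as TGI.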

Legend:
Assay in all cases: DTP human tumour cell line panel, 48 h
[1] = system: 786-0 renal
[2] = system: A498 renal
[3] = system: A549 NSCLC
[4] = system: ACHN renal
[5] = system: BT-549 breast
[6] = system: CAKI-1 renal
[7] = system: CCRF-CEM leukemia
[8] = system: COLO 205 colon
[9] = system: DU-145 prostate
[10] = system: EKVX NSCLC
[11] = system: HCC-2998 colon
[12] = system: HCT-116 colon
[13] = system: HCT-15 colon
[14] = system: HL-60(TB) leukemia
[15] = system: HOP-62 NSCLC
[16] = system: HOP-92 NSCLC
[17] = system: HS 578T breast
[18] = system: HT29 colon
[19] = system: IGROV1 ovarian
[20] = system: K-562 leukemia
[21] = system: KM12 colon
[22] = system: LOX IMVI melanoma
[23] = system: M14 melanoma
[24] = system: MALME-3M melanoma
[25] = system: MCF7 breast
[26] = system: MDA-MB-231 breast
[27] = system: MDA-MB-435
[28] = system: MOLT-4 leukemia
[29] = system: NCI-H226 lung
[30] = system: NCI-H23 lung
[31] = system: NCI-H460 lung
[32] = system: NCI-H522 lung
[33] = system: NCI/ADR-RES ovarian
[34] = system: OVCAR-3 ovarian
[35] = system: OVCAR-4 ovarian
[36] = system: OVCAR-5 ovarian
[37] = system: OVCAR-8 ovarian
[38] = system: PC-3 prostate
[39] = system: RPMI-8226 leukemia
[40] = system: RXF 393 renal
[41] = system: SF-268 CNS
[42] = system: SF-295 CNS
[43] = system: SF-539 CNS
[44] = system: SK-MEL-2 melanoma
[45] = system: SK-MEL-28 melanoma
[46] = system: SK-MEL-5 melanoma
[47] = system: SK-OV-3 ovarian
[48] = system: SN12C renal
[49] = system: SNB-19 CNS
[50] = system: SNB-75 CNS
[51] = system: SR leukemia
[52] = system: SW-620 colon
[53] = system: T-47D breast
[54] = system: TK-10 renal
[55] = system: U251 CNS
[56] = system: UACC-257 melanoma
[57] = system: UACC-62 melanoma
[58] = system: UO-31 renal

`CCCCCCCCCCCC1=NC(C)(C)CN1CCO` gave a GI50 [1] of 6.09 µM, a TGI [1] of 19 µM and a GI50 [2] of 15.6 µM. For the same molecule, the TGI [2] was 31.8 µM, the GI50 [3] was 6.93 µM and the TGI [3] was 21.9 µM. It also gave a GI50 [4] of 9.05 µM, a TGI [4] of 23.5 µM and a GI50 [5] of 13.6 µM. The TGI [5] was 34.3 µM, the GI50 [6] was 4.57 µM and the TGI [6] was 18.9 µM. The GI50 [7] was 3.54 µM, the TGI [7] was 18.4 µM and the GI50 [8] was 1.85 µM. The TGI [8] was 3.45 µM, the GI50 [9] was 10.2 µM and the TGI [9] was 21.9 µM. It also gave a GI50 [10] of 10.7 µM, a TGI [10] of 29.5 µM and a GI50 [11] of 1.87 µM. The TGI [11] was 3.63 µM, the GI50 [12] was 1.94 µM and the TGI [12] was 3.76 µM. For the same molecule, the GI50 [13] was 1.98 µM, the TGI [13] was 4.42 µM and the GI50 [14] was 3.3 µM. The TGI [14] was 13.7 µM, the GI50 [15] was 4.6 µM and the TGI [15] was 16.2 µM. For the same molecule, the GI50 [16] was 1.29 µM, the TGI [16] was 8.11 µM and the GI50 [17] was 7.51 µM. For the same molecule, the TGI [17] was 25.6 µM, the GI50 [18] was 2.12 µM and the TGI [18] was 5.05 µM. The GI50 [19] was 2.57 µM, the TGI [19] was 6.67 µM and the GI50 [20] was 2.44 µM. The TGI [20] was 5.57 µM, the GI50 [21] was 2.85 µM and the TGI [21] was 7.57 µM. The GI50 [22] was 1.97 µM, the TGI [22] was 4.65 µM and the GI50 [23] was 1.92 µM. For the same molecule, the TGI [23] was 3.74 µM, the GI50 [24] was 10.2 µM and the TGI [24] was 29 µM. For the same molecule, the GI50 [25] was 2.41 µM, the TGI [25] was 6.09 µM and the GI50 [26] was 3.78 µM. It also gave a TGI [26] of 15.2 µM, a GI50 [27] of 2.51 µM and a TGI [27] of 6.98 µM. For the same molecule, the GI50 [28] was 3.23 µM, the TGI [28] was 9.94 µM and the GI50 [29] was 15.4 µM. For the same molecule, the TGI [29] was 36.2 µM, the GI50 [30] was 5.56 µM and the TGI [30] was 18.6 µM. The GI50 [31] was 2.88 µM, the TGI [31] was 7.66 µM and the GI50 [32] was 4.57 µM. It also gave a TGI [32] of 13 µM, a GI50 [33] of 13.9 µM and a TGI [33] of 29.5 µM. It also gave a GI50 [34] of 5.87 µM, a TGI [34] of 11.3 µM and a GI50 [35] of 7.45 µM. It also gave a TGI [35] of 21.5 µM, a GI50 [36] of 15.9 µM and a TGI [36] of 30.9 µM. For the same molecule, the GI50 [37] was 10.7 µM, the TGI [37] was 29.9 µM and the GI50 [38] was 3.29 µM. For the same molecule, the TGI [38] was 17.2 µM, the GI50 [39] was 2.3 µM and the TGI [39] was 7.46 µM. For the same molecule, the GI50 [40] was 3.94 µM, the TGI [40] was 10.5 µM and the GI50 [41] was 6.68 µM. It also gave a TGI [41] of 20.3 µM, a GI50 [42] of 2.98 µM and a TGI [42] of 9.85 µM. The GI50 [43] was 4.37 µM, the TGI [43] was 8.79 µM and the GI50 [44] was 8.15 µM. The TGI [44] was 22.4 µM, the GI50 [45] was 2.12 µM and the TGI [45] was 4.35 µM. For the same molecule, the GI50 [46] was 12 µM, the TGI [46] was 25.1 µM and the GI50 [47] was 14.8 µM. It also gave a TGI [47] of 29.2 µM, a GI50 [48] of 9.95 µM and a TGI [48] of 24.8 µM. For the same molecule, the GI50 [49] was 15.1 µM, the TGI [49] was 30.9 µM and the GI50 [50] was 7.93 µM. The TGI [50] was 21.6 µM, the GI50 [51] was 2.38 µM and the TGI [51] was 5.79 µM. The GI50 [52] was 1.95 µM, the TGI [52] was 3.94 µM and the GI50 [53] was 4.04 µM. It also gave a TGI [53] of 16.9 µM, a GI50 [54] of 10.8 µM and a TGI [54] of 28.9 µM. The GI50 [55] was 2.8 µM, the TGI [55] was 9.46 µM and the GI50 [56] was 3.63 µM. For the same molecule, the TGI [56] was 11.5 µM, the GI50 [57] was 1.97 µM and the TGI [57] was 4.41 µM. The GI50 [58] was 7.25 µM and the TGI [58] was 21 µM.
